Patent US20230075368A1, “IDENTIFICATION OF AN EGFR-BIN3 PATHWAY THAT ACTIVELY SUPPRESSES INVASION AND REDUCES TUMOR SIZE IN GLIOBLASTOMA” (The United States Govemment as represented by the …, priority 2020, published 2023)

Experiments:
Type in all cases: cell-based, human
EGR1 = EGR1 levels (qPCR, Western blot) and EGR1 promoter luciferase assay
Procedure: Whole protein extracts from cells or tumor tissues were analyzed by western blot as previously described (Altieri et al. (2015) Surg. Technol. Int 27: 297-302). Mayo PDX cells were serum starved overnight. Following treatment for specific time, cells were harvested and lysed. The human glioblastoma tissues were ground in liquid nitrogen and then were lysed. EGFR (06-847) antibody was from Millipore. DOCK7 was from Proteintech (Rosemont, Ill.). pEGFR (2236), STAT3 (12640), pSTAT3 (9145), cdc42(4376), and RhoA (4695) antibodies were from Cell Signaling Technology (Danvers, Mass.). TGFα antibody was from R&D system. BIN3 (sc-514396) and (3-Actin (sc-47778) were from Santa Cruz Biotechnology (Dallas, Tex.).
Total RNA from cells was extracted by TRIzol Reagent (Ambion). First-strand cDNA and PCR was performed as described previously (Altieri et al. (2015) Surg. Technol. Int. 27: 297-302). The expression of each gene was normalized to GAPDH as a reference. The following primers were used. BIN3, 5′-[…]-3′ (SEQ ID NO:5) and 5′-[…]-3′ (SEQ ID NO:6); GAPDH, 5′-[…]-3′ (SEQ ID NO:7) and 5′-TGATG-[…]-3′ (SEQ ID NO:8).
Cells were plated in 48 well dishes to 70%-80% confluence followed by transfection with EGR1 promoter plasmid or empty plasmid using lipofectamine 2000. […] Firefly luciferase activity was measured in a luminometer and normalized on the basis of Renilla luciferase activity.

GBM12 and GBM22 cells = assay: Single cell migration assay on nanoplates
From the text: For time-lapse analysis of individual cell movement, nano-ridge constructed of transparent poly(urethane acrylate) (PUA), and fabricated using UV-assisted capillary lithography as described by Kim et al. were used (Kim, D et al. (2009) Mechanosensitivity of fibroblast cell shape and movement to anisotropic substratum topography gradients, Biomaterials 30: 5433-5444; Kim, et al. (2009) Guided Cell Migration on Microtextured Substrates with Variable Local Density and Anisotropy, Adv Funct Mater 19: 1579-1586; Garzon-Muvdi, et al. (2012) Regulation of brain tumor dispersal by NKCC1 through a novel role in focal adhesion regulation, PLoS Biol 10: e1001320). The 24 well NanoSurface plate was purchased from Curi Bio (Seattle, Wash.). Prior to cell seeding, nanoridges surfaces were coated with laminin (3 μg/cm^2, Sigma-Aldrich). Cells were plated at low density (1×10^4 cells/ml) and incubated at 37° C. overnight. The following day, cells were washed with PBS and cultured in DMEM supplemented with 1% FBS and were ready for time-lapse imaging. To measure cell proliferation, 6 hours after plating Histone2B-GFP (C10594, ThermoFisher) was added for nuclear staining overnight. The next day cells were incubated with a mixture of BioTracker® NTP-Transporter Molecule (SCT064, Sigma Aldrich) and Cy3-dUTP (50-190-5459, ThermoFisher) for 10 minutes and then replaced with 1% FBS media containing HB2B2-GFP. For time-lapse imaging, the plate was mounted onto the stage of Andor spinning disk confocal microscope equipped with temperature and CO2 controlling environmental chamber. […] Both fluorescent and bright-field images were taken every 30 minutes for 24 hours using a 10× objective. ImageJ manual track Plugin was used to track the movement of cells frame by frame.
Analysis of individual cellular movement was performed as described elsewhere herein. EGF (50 ng/ml) or vehicle was added 6 hours after the start of time-lapse imaging (n=63 cells). Vehicle was used as a negative control (n=67 cells). Single cell migration speed was calculated using Manual tracking Plugin in ImageJ. […] Cell migration velocity was calculated over a period of 6 hours. […] Analysis of individual cell proliferation was performed as described elsewhere herein. EGF (50 ng/ml) was added 6 hours after the start of time-lapse imaging (n=56). Vehicle was used as a negative control (n=64). Representative static time-lapse Cy3 and H2B-GFP staining images of the same cell before and after addition of EGF are shown in FIG. 25E. […] Each point represents the percentage of Ki positive cells in total 100 cells. […] Cell migration velocity was calculated over a period of 6 hours (n=81). Vehicle was used as a negative control (n=89). […] Scale bar=[…]. Data are represented as media ±5-95% interquartile range (FIG. 25B and FIG. 25K) or mean±SEM (FIG. 25D and FIG. 25M). ***P<0.001, […], n.s. not significant, Mann-Whitney test was used for pair comparison. Two-way ANOVA test was used to analyze Cy3 intensity data in FIG. 25D and FIG. 25M. The results are representative of two independently repeated experiments.
Single-cell migration analysis was performed as described for FIG. 25A above (Vehicle group, n=57, EGF group, n=74). […] Cell migration velocity was calculated over a period of 6 hours. Vehicle was used as a negative control (n=57). […] Analysis of individual cell proliferation was performed as described elsewhere herein. […] Cell migration velocity was calculated over a period of 6 hours. […]

GBM12, GBM6, and GBM22 = assay: Bromodeoxyuridine cell proliferation assay; settings: 48 hours
Procedure: Cell proliferation was assessed using the bromodeoxyuridine (BrdU) cell proliferation enzyme-linked immunosorbent assay kit (Abcam, Cambridge, United Kingdom) according to the manufacturer's instructions.

CDC42 = assay: Cdc42 pull down assay (CDC42-GTP); settings: 24 hours, GBM12 and GBM6
Procedure: The amount of GTP-bound RhoA and Cdc42 were measured using RhoA and Cdc42 pull down assay kit (Cell Signaling) according to the protocol provided by the manufacturer. Briefly, cell lysates were incubated with either glutathione S-transferase (GST)-Rhotekin-RBD or GST-PAK-PBD beads 4° C. for 1 hour to pull down GTP-bound RhoA or Cdc42. Beads were washed four times in washing buffer and re-suspended in lysis buffer. RhoA-GTP and Cdc42-GTP were detected by Western blot using RhoA and Cdc42 antibodies.

C[C@@H]1CCN(C(=O)CC#N)C[C@@H]1N(C)c1ncnc2[nH]ccc12 [tofacitinib]
EGR1 levels and activity (EGR1; tofacitinib, Western blot 4 hours, luciferase 2 and 24 hours): induces EGR1 levels and activity
single cell migration (GBM12 and GBM22 cells; tofacitinib 1 μM, GBM12): decreased invasion
single cell proliferation (Cy3) (GBM12 and GBM22 cells; tofacitinib 1 μM, GBM12): increased proliferation
single cell migration and proliferation (GBM12 and GBM22 cells; tofacitinib 1 μM, second PDX line (GBM22)): confirmed
proliferation (BrdU incorporation) (GBM12, GBM6, and GBM22; tofacitinib 1 μM): induced proliferation

EGF: Recombinant human EGF (AF-100) from Peprotech; EGFR ligand
EGR1 mRNA, protein and transcriptional activity (EGR1; EGF 50 ng/ml, GBM12 and GBM6): upregulation of EGR1 was confirmed
single cell migration (GBM12 and GBM22 cells; EGF 50 ng/ml, GBM12): significant slowing of migration
single cell proliferation (Cy3 linked marker, Ki-67) (GBM12 and GBM22 cells; EGF 50 ng/ml, GBM12): induces proliferation
proliferation (BrdU incorporation) (GBM12, GBM6, and GBM22; EGF 50 ng/ml): induces proliferation
CDC42 activity (CDC42; EGF 50 ng/ml): decreases the activity

HGF: the ligand for Met
CDC42 activity (CDC42; HGF 20 ng/ml): increase of CDC42 activity was not detected
